For nine compounds, IC50 results are on record in ChEMBL document CHEMBL2021858, “The effect of vindoline C-16 substituents on the biomimetic coupling reaction: synthesis and cytotoxicity evaluation of the corresponding vinorelbine analogues” (Bioorg Med Chem Lett, 2012).

One test concerns HeLa. The experiment in a line: Cytotoxicity against human HeLa cells by MTT assay. The format is functional, cell-based. On the technique in general: Formazan colour is commonly taken as a measure of viable cells.
A further test relates to A549. The experiment in a line: Cytotoxicity against human A549 cells by MTT assay. The format is functional, cell-based.

pIC50: −log10 of the molar value.

With `CCC1=C[C@@H]2CN(C1)Cc1c([nH]c3ccccc13)[C@@](C(=O)OC)(c1cc3c(cc1OC)N(C)[C@H]1[C@@](O)(COC(C)=O)[C@H](OC(C)=O)[C@]4(CC)C=CCN5CC[C@]31[C@@H]54)C2`, the pIC50 was 8.30 with HeLa and 8.15 with A549.
For `CCOc1cc2c(cc1[C@@]1(C(=O)OC)C[C@@H]3C=C(CC)CN(Cc4c1[nH]c1ccccc41)C3)[C@@]13CCN4CC=C[C@@](CC)([C@@H](OC(C)=O)[C@](O)(COC(C)=O)[C@@H]1N2C)[C@H]43`, in that order: 7.96 and 7.89.
As for `CCCOc1cc2c(cc1[C@@]1(C(=O)OC)C[C@@H]3C=C(CC)CN(Cc4c1[nH]c1ccccc41)C3)[C@@]13CCN4CC=C[C@@](CC)([C@@H](OC(C)=O)[C@](O)(COC(C)=O)[C@@H]1N2C)[C@H]43`, the negative logarithm of the IC50 (pIC50) with HeLa is 7.35; with A549, 7.29.
For `CCCCOc1cc2c(cc1[C@@]1(C(=O)OC)C[C@@H]3C=C(CC)CN(Cc4c1[nH]c1ccccc41)C3)[C@@]13CCN4CC=C[C@@](CC)([C@@H](OC(C)=O)[C@](O)(COC(C)=O)[C@@H]1N2C)[C@H]43`, in that order: 7.05 and 7.03.
For `CCCCCCCOc1cc2c(cc1[C@@]1(C(=O)OC)C[C@@H]3C=C(CC)CN(Cc4c1[nH]c1ccccc41)C3)[C@@]13CCN4CC=C[C@@](CC)([C@@H](OC(C)=O)[C@](O)(COC(C)=O)[C@@H]1N2C)[C@H]43`, in that order: 6.50 and 6.48.
The matching figures for `CCC1=C[C@@H]2CN(C1)Cc1c([nH]c3ccccc13)[C@@](C(=O)OC)(c1cc3c(cc1OC(C)C)N(C)[C@H]1[C@@](O)(COC(C)=O)[C@H](OC(C)=O)[C@]4(CC)C=CCN5CC[C@]31[C@@H]54)C2`: 6.68 and 6.63.
Regarding `CCC1=C[C@@H]2CN(C1)Cc1c([nH]c3ccccc13)[C@@](C(=O)OC)(c1cc3c(cc1OCCOC(C)=O)N(C)[C@H]1[C@@](O)(COC(C)=O)[C@H](OC(C)=O)[C@]4(CC)C=CCN5CC[C@]31[C@@H]54)C2`, the negative-log IC50 (pIC50) in the test with HeLa was 7.11; with A549, 7.08.
For `CCC1=C[C@@H]2CN(C1)Cc1c([nH]c3ccccc13)[C@@](C(=O)OC)(c1cc3c(cc1OC(C)=O)N(C)[C@H]1[C@@](O)(COC(C)=O)[C@H](OC(C)=O)[C@]4(CC)C=CCN5CC[C@]31[C@@H]54)C2`, in that order: 7.31 and 7.25.
For `CCC1=C[C@@H]2CN(C1)Cc1c([nH]c3ccccc13)[C@@](C(=O)OC)(c1cc3c(cc1OC)N(C)[C@H]1[C@@](O)(C(=O)OC)[C@H](OC(C)=O)[C@]4(CC)C=CCN5CC[C@]31[C@@H]54)C2` [VINORELBINE], in that order: 8.05 and 8.00.

Usually pIC50 stands for −log10 of the IC50, conventionally taken in molar units. Low readings indicate a high IC50, high ones a low IC50.
